Values quoted from earlier work in patent US20240165107A1 (Cipla Limited, priority 2021, published 2024).
Read-outs that look alike come from different tables or passages of the source.

Tests used:
[1] = target: T1, alA- adrenergic receptors (Homo sapiens, UniProt P35348)
T1 sequence (P35348 1-466): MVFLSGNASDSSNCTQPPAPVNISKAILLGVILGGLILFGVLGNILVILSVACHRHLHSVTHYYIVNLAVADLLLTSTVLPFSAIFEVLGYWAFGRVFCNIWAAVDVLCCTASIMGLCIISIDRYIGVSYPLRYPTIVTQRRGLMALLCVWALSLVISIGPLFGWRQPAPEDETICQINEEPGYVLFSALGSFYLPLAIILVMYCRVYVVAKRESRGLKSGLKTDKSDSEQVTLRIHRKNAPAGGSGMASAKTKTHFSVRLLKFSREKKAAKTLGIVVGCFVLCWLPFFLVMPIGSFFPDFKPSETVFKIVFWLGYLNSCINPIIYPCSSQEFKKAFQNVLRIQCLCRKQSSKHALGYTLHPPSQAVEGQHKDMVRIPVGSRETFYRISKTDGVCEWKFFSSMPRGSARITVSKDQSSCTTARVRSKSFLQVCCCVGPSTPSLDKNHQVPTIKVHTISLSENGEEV

[2] = target: 5-HT2B receptors (Homo sapiens, UniProt P41595); details: antagonist
Sequence of 5-HT2B receptors (P41595 whole entry): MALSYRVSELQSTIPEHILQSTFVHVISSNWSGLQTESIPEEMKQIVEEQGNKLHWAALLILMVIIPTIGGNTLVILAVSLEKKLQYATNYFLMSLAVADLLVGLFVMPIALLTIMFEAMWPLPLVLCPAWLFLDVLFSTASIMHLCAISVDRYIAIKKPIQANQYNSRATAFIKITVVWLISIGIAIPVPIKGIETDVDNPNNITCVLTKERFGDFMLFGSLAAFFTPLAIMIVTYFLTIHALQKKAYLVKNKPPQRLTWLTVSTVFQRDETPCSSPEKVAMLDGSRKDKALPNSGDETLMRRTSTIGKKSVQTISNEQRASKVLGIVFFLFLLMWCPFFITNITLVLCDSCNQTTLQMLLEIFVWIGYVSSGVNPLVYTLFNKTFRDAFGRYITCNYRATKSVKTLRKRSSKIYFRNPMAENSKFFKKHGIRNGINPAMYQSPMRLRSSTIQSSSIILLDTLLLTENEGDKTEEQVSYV

[3] = target: T2, serotonin 5-HT2C receptors (Homo sapiens, UniProt P28335)
T2 sequence (P28335 33-458): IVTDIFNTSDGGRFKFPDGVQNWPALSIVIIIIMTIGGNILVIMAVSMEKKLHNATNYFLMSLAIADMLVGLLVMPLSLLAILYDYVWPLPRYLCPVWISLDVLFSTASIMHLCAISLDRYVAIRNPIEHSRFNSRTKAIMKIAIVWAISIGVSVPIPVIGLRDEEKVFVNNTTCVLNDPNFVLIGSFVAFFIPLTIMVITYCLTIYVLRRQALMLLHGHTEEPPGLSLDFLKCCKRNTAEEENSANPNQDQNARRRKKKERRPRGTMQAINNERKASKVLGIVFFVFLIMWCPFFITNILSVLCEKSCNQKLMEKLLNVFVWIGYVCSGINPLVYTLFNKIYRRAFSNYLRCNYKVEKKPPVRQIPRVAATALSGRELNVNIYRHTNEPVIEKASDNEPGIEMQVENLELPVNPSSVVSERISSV

[4] = target: 5-HT2A receptors (Homo sapiens, UniProt P28223); details: antagonist
Sequence of 5-HT2A receptors (P28223 whole entry): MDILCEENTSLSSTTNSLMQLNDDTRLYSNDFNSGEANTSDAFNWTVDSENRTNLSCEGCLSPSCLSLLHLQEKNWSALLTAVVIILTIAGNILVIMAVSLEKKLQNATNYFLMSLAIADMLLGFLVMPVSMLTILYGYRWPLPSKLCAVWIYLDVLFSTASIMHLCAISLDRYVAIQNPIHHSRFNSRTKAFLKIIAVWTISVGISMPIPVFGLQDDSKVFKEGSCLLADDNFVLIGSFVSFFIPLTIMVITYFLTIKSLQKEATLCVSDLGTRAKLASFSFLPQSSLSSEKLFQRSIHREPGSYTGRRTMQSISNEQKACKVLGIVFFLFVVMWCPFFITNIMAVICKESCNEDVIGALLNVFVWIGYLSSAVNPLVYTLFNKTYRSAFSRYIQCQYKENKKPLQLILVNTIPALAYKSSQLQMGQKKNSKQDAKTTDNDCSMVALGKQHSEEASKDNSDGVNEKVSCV

[5] = dogs; immediate release cariprazine capsules
[6] = system: cholinergic muscarinic receptors
[7] = rats; immediate release cariprazine capsules

binding affinity [1]: lower binding affinity | binding affinity [2]: high | binding affinity [3]: lower binding affinity | binding affinity [4]: moderate | oral absolute bioavailability [5]: 64-80% | affinity [6]: no appreciable affinity | oral absolute bioavailability [7]: 52-63%
SMILES: CN(C)C(=O)N[C@H]1CC[C@H](CCN2CCN(c3cccc(Cl)c3Cl)CC2)CC1 [Cariprazine, trans-N-{4-[2-[4-(2,3-dichlorophenyl)piperazine-1-yl]ethyl]cyclohexyl}-N′,N′-dimethylurea]
